According to US10381110B2, “Molecules” (University of Dundee, priority 2010, dated 2019):
Counter-ions that a name gives are not always drawn. Like-named read-outs stand apart in the source and are kept apart here.

Experiments:
α1B (Alpha1B) = target: T1, α1B (Alpha1B) (Homo sapiens, UniProt P35368); experiment: Secondary radioligand binding assay (Ki)
T1 sequence (P35368 1-520): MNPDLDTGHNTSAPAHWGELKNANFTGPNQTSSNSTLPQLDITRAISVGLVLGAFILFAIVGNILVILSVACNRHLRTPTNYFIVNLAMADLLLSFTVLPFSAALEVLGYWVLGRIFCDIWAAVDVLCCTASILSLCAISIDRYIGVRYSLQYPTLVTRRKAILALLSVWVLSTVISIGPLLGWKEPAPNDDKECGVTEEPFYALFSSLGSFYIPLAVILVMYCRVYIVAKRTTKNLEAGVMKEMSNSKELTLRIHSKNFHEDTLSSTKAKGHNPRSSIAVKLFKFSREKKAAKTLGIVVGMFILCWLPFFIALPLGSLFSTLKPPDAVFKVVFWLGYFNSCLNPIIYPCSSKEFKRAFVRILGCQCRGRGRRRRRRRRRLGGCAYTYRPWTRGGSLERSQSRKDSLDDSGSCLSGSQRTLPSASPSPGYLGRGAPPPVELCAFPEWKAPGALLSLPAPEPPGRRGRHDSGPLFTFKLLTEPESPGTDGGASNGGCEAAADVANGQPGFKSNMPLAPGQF
Description: (§1) Radioligand is diluted to five times the assay concentration (see Table 18) in Standard Binding Buffer. Typically, the assay concentration of radioligand is a value between one half the KD and the KD of a particular radioligand at its target. 50 μl aliquots of radioligand are dispensed into the wells of a 96-well plate containing 100 μl of Standard Binding Buffer. Then, duplicate 50 μl aliquots of the test and reference compound dilutions are added.
(§2) The 250 μl reactions are incubated at room temperature and shielded from light (to prevent photolysis of light-sensitive ligands) for 1.5 hours, then harvested by rapid filtration onto Whatman GF/B glass fiber filters pre-soaked with 0.3% polyethyleneimine using a 96-well Brandel harverster. Four rapid 500 μl washes are performed with chilled Standard Binding Buffer to reduce non-specific binding. Filters are placed in 6 ml scintillation tubes and allowed to dry overnight. The next day, 4 ml of EcoScint scintillation cocktail (National Diagnostics) are added to each tube. The tubes are capped, labeled, and counted by liquid scintillation counting. […] The filter mats are dried, then scintillant is melted onto the filters and the radioactivity retained on the filters is counted in a Microbeta scintillation counter.
(§3) Raw data (dpm) representing total radioligand binding (i.e. specific+non-specific binding) are plotted as a function of the logarithm of the molar concentration of the competitor (i.e. test or reference compound).
(§4) Adrenergic Receptors: α1A, α1B, α2A, α2B, α2C, β1, β2, β3
(§5) Membrane Fraction Source: Transiently or stably transfected cell lines (e.g. HEK293, COS, CHO, NIH3T3)
(§6) The method is carried out in the manner described for the serotonin receptor assay above, except where described below. Eleven dilutions (5× assay concentration) of the test and reference (see Table 20) compounds are prepared in the appropriate buffer by serial dilution, as previously described. Radioligand is diluted to five times the assay concentration (see Table 21) in the appropriate buffer.
(§7) The 250 μl reactions are incubated at room temperature and shielded from light (to prevent photolysis of light-sensitive ligands) for 1 hour (for α1 receptors, 40 min for α2 receptors, and 1.5 hours for β receptors), then harvested by rapid filtration onto Whatman GF/B glass fiber filters pre-soaked with 0.3% polyethyleneimine using a 96-well Brandel harverster. Four rapid 500-μl washes are performed with chilled distilled water (for α1 and β receptors) or 0.1% polyethyleneimine (for α2 receptors) to reduce non-specific binding. Filters are placed in 6 ml scintillation tubes and allowed to dry overnight and the samples are treated to obtain data as described above.

Alpha1D = target: T2, Alpha1D (Homo sapiens, UniProt P25100); experiment: Secondary radioligand binding assay (Ki)
T2 sequence (P25100 1-572): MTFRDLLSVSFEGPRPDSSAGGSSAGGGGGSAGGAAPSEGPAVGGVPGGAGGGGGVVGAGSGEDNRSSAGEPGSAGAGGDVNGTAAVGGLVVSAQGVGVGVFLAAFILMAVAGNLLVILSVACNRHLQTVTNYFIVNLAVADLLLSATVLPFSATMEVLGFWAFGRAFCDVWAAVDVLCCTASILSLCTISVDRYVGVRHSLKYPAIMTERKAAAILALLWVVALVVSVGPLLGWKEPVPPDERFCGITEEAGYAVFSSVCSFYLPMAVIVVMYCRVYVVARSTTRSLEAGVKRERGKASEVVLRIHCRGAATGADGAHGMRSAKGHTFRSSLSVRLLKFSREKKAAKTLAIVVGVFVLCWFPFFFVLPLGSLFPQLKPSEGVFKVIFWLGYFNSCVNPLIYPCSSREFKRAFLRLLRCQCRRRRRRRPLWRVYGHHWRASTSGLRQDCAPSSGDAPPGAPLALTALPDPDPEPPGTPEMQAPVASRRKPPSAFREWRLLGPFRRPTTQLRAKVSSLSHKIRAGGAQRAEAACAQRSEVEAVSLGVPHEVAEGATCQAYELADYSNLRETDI
Description: as §1, §2, §3, §4, §5, §6, §7

dopamine D3 = dopamine D3 (Homo sapiens, UniProt P35462); experiment: Secondary radioligand binding assay (Ki); conditions: for α1/D2: Table 23: Selectivity of Dopamine D3 over average of α1 Receptors; for α1A/D2 / α1B/D2 / α1D/D2: Table 23: Selectivity of Dopamine D3 over α1 Receptors, ratio of Ki
dopamine D3, sequence (P35462 whole entry): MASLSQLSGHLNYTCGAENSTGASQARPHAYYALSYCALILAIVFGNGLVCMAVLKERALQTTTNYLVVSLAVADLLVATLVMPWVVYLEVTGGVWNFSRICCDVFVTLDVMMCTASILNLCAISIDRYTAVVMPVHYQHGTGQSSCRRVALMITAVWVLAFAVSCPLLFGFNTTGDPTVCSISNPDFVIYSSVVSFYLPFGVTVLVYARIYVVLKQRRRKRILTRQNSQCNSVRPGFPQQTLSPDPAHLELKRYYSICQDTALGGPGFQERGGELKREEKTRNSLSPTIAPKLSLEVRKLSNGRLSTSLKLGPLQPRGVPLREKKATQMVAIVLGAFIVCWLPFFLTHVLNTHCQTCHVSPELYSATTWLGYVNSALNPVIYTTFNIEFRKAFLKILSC
Description: as §1, §2, §3
(§8) Assay Buffers: Dopamine Binding Buffer (50 mM NaCl, 50 mM HEPES-HCl, 5 mM MgCl2, 0.5 mM EDTA, pH 7.4)
as §5
(§9) The method is carried out in the manner described for the serotonin receptor assay above. Eleven dilutions (5× assay concentration) of the test and reference (see Table 19) compounds are prepared in Dopamine Binding Buffer by serial dilution, as previously described. Radioligand is diluted to five times the assay concentration (see Table 20) in Dopamine Binding Buffer.

5-HT1B = 5-HT1B (Homo sapiens, UniProt P28222); experiment: Secondary radioligand binding assay (Ki)
5-HT1B, sequence (P28222 whole entry, species assumed): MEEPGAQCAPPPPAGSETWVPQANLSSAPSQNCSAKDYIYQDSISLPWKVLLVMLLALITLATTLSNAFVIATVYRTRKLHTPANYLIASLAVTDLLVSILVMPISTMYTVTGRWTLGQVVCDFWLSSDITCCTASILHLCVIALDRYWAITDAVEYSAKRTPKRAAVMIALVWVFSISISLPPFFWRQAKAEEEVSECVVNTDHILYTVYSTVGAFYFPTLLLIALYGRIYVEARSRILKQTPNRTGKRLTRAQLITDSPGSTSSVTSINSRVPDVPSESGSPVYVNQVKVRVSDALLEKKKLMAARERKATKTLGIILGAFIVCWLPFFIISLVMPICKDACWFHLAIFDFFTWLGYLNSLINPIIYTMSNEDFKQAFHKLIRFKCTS
Description: (§10) Assay Buffer: Standard Binding Buffer (50 mM Tris-HCl, 10 mM MgCl2, 1 mM EDTA, pH 7.4)
(§11) Membrane Fraction Source: Transiently or stably transfected cell lines (e.g., HEK293, COS, CHO, NIH3T3)
as §1, §2, §3

5-HT1D = 5-HT1D (Homo sapiens, UniProt P28221); experiment: Secondary radioligand binding assay (Ki)
5-HT1D, sequence (P28221 whole entry, species assumed): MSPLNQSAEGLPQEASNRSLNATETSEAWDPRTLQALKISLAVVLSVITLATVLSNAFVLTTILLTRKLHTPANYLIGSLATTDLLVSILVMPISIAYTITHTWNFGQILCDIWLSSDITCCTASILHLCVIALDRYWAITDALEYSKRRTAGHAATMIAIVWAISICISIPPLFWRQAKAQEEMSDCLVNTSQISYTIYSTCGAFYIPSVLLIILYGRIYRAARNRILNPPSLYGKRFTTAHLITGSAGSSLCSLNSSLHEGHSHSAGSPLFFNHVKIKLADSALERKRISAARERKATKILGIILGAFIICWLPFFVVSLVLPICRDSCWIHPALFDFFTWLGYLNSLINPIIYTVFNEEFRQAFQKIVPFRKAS
Description: as §10, §11, §1, §2, §3

5-HT2A = 5-HT2A (Homo sapiens, UniProt P28223); experiment: Secondary radioligand binding assay (Ki)
5-HT2A, sequence (P28223 whole entry, species assumed): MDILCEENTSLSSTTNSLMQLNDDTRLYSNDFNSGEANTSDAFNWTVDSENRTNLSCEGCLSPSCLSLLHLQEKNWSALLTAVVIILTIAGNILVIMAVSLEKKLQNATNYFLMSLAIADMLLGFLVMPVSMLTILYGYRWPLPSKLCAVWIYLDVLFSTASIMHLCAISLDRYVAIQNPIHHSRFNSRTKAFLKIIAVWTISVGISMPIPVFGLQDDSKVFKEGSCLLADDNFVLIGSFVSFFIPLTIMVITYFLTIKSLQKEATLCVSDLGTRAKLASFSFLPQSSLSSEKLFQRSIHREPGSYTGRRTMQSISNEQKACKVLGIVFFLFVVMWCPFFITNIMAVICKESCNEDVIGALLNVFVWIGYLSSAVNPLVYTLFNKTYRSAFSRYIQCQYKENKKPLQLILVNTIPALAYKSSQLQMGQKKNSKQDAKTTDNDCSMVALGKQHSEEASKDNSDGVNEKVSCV
Description: as §10, §11, §1, §2, §3

5-HT7 = 5-HT7 (Homo sapiens, UniProt P34969); experiment: Secondary radioligand binding assay (Ki)
5-HT7, sequence (P34969 whole entry, species assumed): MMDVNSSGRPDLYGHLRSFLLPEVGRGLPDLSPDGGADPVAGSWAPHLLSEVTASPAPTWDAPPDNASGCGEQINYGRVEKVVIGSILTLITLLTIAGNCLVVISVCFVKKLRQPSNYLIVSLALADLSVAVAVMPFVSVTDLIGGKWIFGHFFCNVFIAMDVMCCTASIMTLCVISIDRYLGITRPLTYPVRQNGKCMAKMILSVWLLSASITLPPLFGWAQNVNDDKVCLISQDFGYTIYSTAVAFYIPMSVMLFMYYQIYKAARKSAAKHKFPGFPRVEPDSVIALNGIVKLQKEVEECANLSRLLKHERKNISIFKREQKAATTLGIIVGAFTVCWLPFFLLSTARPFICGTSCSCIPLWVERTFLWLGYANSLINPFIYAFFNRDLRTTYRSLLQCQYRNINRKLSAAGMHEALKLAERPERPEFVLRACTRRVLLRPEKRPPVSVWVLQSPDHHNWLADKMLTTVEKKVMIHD
Description: as §10, §11, §1, §2, §3

Alpha1B = target: T3, Alpha1B (Homo sapiens, UniProt P35368); experiment: Primary radioligand binding assay (NIMH PDSP); conditions: primary radiobinding assay, [3H]Prazosin; further: test concentration or dose not given here
T3 sequence (P35368 1-520): T1 sequence (P35368 1-520)

dopamine D1 [1] = target: T4, dopamine D1 (Homo sapiens, UniProt P21728); experiment: Primary radioligand binding assay (NIMH PDSP); conditions: primary radiobinding assay, [3H]SCH233930; further: test concentration or dose not given here
T4 sequence (P21728 whole entry): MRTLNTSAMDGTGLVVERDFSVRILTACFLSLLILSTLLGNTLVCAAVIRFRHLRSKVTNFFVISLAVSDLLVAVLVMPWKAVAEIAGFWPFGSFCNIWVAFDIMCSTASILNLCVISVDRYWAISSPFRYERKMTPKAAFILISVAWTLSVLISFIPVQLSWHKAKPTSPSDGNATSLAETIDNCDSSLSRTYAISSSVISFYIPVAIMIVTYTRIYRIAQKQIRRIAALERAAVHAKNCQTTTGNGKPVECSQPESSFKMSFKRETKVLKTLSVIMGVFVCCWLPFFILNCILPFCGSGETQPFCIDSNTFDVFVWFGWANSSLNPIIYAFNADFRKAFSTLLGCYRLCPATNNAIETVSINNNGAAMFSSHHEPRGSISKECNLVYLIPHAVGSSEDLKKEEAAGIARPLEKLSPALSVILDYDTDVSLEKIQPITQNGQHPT

dopamine D1 [2] = target: T4, dopamine D1; experiment: Secondary radioligand binding assay (Ki)
Description: as §1, §2, §3, §8, §5, §9

dopamine D5 = dopamine D5 (Homo sapiens, UniProt P21918); experiment: Secondary radioligand binding assay (Ki); conditions: read-out: Experimental Receptor Binding Data-Ki D5; Table 25, GPCR panel
dopamine D5, sequence (P21918 whole entry): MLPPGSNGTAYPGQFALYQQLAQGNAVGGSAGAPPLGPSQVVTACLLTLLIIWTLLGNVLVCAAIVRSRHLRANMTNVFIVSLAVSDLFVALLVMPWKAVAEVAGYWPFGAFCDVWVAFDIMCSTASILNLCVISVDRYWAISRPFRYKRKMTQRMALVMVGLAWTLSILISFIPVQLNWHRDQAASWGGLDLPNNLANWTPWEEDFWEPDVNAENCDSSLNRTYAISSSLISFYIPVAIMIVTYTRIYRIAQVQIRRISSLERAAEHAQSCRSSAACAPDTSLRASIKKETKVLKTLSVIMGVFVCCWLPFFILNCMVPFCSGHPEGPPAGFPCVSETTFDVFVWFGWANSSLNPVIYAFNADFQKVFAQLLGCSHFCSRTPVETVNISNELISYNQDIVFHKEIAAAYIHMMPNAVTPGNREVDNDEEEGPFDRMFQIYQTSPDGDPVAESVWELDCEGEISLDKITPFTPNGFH
Description: as §1
The 250 μl reactions are incubated at room temperature and shielded from light (to prevent photolysis of light-sensitive ligands) for 1.5 hours, then harvested by rapid filtration onto Whatman GF/B glass fiber filters pre-soaked with 0.3% polyethyleneimine using a 96-well Brandel harverster. Four rapid 500 μl washes are performed with chilled Standard Binding Buffer to reduce non-specific binding. Filters are placed in 6 ml scintillation tubes and allowed to dry overnight. The next day, 4 ml of EcoScint scintillation cocktail (National Diagnostics) are added to each tube. The tubes are capped, labeled, and counted by liquid scintillation counting. […] The filter mats are dried, then scintillant is melted onto the filters and the radioactivity retained on the filters is counted in a Microbeta scintillation counter. […]

5-HT2C = target: T5, 5-HT2C (Homo sapiens, UniProt P28335); experiment: Secondary radioligand binding assay (Ki)
T5 sequence (P28335 33-458): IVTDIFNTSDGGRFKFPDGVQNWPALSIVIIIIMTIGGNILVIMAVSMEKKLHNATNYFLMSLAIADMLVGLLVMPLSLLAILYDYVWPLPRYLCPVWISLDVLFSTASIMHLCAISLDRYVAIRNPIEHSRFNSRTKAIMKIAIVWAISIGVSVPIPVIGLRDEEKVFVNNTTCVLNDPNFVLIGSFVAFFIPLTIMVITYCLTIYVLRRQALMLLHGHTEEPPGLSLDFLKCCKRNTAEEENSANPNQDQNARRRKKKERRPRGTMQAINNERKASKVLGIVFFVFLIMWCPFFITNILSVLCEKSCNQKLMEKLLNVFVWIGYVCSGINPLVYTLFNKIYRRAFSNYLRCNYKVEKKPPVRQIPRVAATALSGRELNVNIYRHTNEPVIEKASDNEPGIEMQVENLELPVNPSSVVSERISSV
Description: as §10, §11, §1
The 250 μl reactions are incubated at room temperature and shielded from light (to prevent photolysis of light-sensitive ligands) for 1.5 hours, then harvested by rapid filtration onto Whatman GF/B glass fiber filters pre-soaked with 0.3% polyethyleneimine using a 96-well Brandel harverster. Four rapid 500 μl washes are performed with chilled Standard Binding Buffer to reduce non-specific binding. Filters are placed in 6 ml scintillation tubes and allowed to dry overnight. […] The tubes are capped, labeled, and counted by liquid scintillation counting. […] The filter mats are dried, then scintillant is melted onto the filters and the radioactivity retained on the filters is counted in a Microbeta scintillation counter. […]

[3] = read-out: Experimental Receptor Binding Data-Ki ALPHA_1B, Table 25, GPCR panel
[4] = read-out: Experimental Receptor Binding Data-Ki ALPHA_1D, Table 25, GPCR panel
[5] = read-out: Experimental Receptor Binding Data-Ki D3, Table 25, GPCR panel
[6] = read-out: Experimental Receptor Binding Data-Ki D1, Table 25, GPCR panel

Row | Compound | Ki (α1B (Alpha1B); [3]) [nM] | Ki (α1B (Alpha1B); read-out: Kiα1B) [nM] | Ki (Alpha1D; [4]) [nM] | Ki (Alpha1D; read-out: Kiα1D) [nM] | Ki (dopamine D3) [nM] | α1/D2 (dopamine D3) | α1A/D2 (dopamine D3) | α1B/D2 (dopamine D3) | α1D/D2 (dopamine D3) | Ki (5-HT1B) [nM] | Ki (5-HT1D) [nM] | Ki (5-HT2A) [nM] | Ki (5-HT7) [nM] | Alpha1B (% inh) (Alpha1B) | D1 (% inh) (dopamine D1 [1]) | Ki (dopamine D3; [5]) [nM] | Ki (dopamine D3; read-out: KiD3) [nM] | Ki (dopamine D1 [2]; [6]) [nM] | other results
1 | COc1ccc2c(c1)C(=O)N(CCCN1CCN(c3ccccc3OC)CC1)C2 [GFR-VII-273] | 323 | 323 | 81.1 | 81.1 | 163 | 1.0 | 0.4 | 1.98 | 0.5 | 362 | 1000 | 956 | 545 | 102.5 | 49.5 | – | – | – | –
2 | COc1ccc2c(c1)C(=O)N(CCN1CCN(c3ccccc3OC)CC1)C2 [GFR-VII-280-HCl] | – | – | – | – | 180 | 0.1 | 0.05 | 0.16 | 0.03 | 378 | 176 | – | 529 | 101 | 30 | – | – | – | Ki (α1B (Alpha1B)): 29.1 nM; Ki (Alpha1D): 5.1 nM
3 | COc1ccc2c(c1)C(=O)N(CCN1CCN(c3ccccc3OC)CC1)C2 [GFR-VII-280] | 38.7 | 38.7 | 12.4 | 12.4 | – | – | 0.08 | 0.19 | 0.06 | – | – | – | – | 104.4 | 29.3 | 208 | 208 | – | Ki (5-HT1B; read-out: Experimental Receptor Binding Data-Ki 5HT1B, Table 25, GPCR panel): 306 nM; Ki (5-HT1D; read-out: Experimental Receptor Binding Data-Ki 5HT1D, Table 25, GPCR panel): 139 nM
4 | COc1cc2c(cc1OC)C(=O)N(CCCCN1CCN(c3ccccc3OC)CC1)C2 [GFR-VII-285] | 19.3 | 19.3 | 4.4 | 4.4 | – | 0.75 | 0.08 | 1.8 | 0.4 | 130 | 298 | 270 | 228 | 101.5 | 91.3 | 11 | 11 | 531 | Ki (dopamine D5): 1890 nM; Ki (5-HT2C): 3.43 µM
5 | COc1ccc2c(c1)CN(CCCN1CCN(c3ccccc3OC)CC1)C2=O [GFR-VII-290] | 608 | 608 | 56 | 56 | – | 1.6 | 0.4 | 4.0 | 0.37 | – | 829 | 1000 | 732 | 52.4 | 54.5 | 152 | 152 | 2730 | –
6 | CC1Cc2ccccc2N1C(=O)CN1CCN(Cc2ccccc2)CC1 (centres unmarked) [STT-00185638, 2-[-4-(benzyl)-piperazin-1-yl]-1-(2-methy-2,3-dihydro-indol-1-yl)-ethanone] | – | – | – | – | 3220 | – | – | – | – | – | – | – | 4360 | 16 | 50.8 | – | – | – | Ki (dopamine D1 [2]): 6360 nM
